Values of other authors in patent US6740517B2, “Incubation method for obtaining solid culture of Zang Zhi, solid culture obtained therefrom, processed products and use thereof” (priority 2001, dated 2004).

Tests used:
[1] = system: mouse with the acute hepatitis induced by CCl4
[2] = system: lymphoma cells of a p-388 mouse

Row | Molecule | GPT in the blood [1] | inhibition to the lymphoma cells of a p-388 mouse [2] | inhibition to agglutination of blood platelets (blood platelets)
1 | 3,11-dioxo-8,23-dien-26-oic acid | reduce GPT |  | 
2 | C=C(CC[C@@H](C)[C@H]1CC[C@H]2C3=C(C(=O)C[C@]12C)[C@@]1(C)CCC(=O)[C@@H](C)[C@@H]1CC3=O)C(C)C(=O)O (stereo partly drawn) [Zhankuic acid A] |  | conspicuous inhibition | conspicuous inhibition
